Active and inactive are the calls of the source. The rule behind the calls is not given here.
Key:
Escherichia coli = assay: Antimicrobial activity against Escherichia coli; type: functional, organism-based
Staphylococcus aureus = assay: Antimicrobial activity against Staphylococcus aureus; type: functional, organism-based

In the case of `Cc1cc2c(cc1O)C=C1C=CCC(C)(C)[C@@H]1CC2=O`, the Activity (Escherichia coli) is reported as “Active” and the Activity (Staphylococcus aureus) is reported as “Active”.
